# Results from PubChem BioAssay AID1996.
# Conditions: buffer; pH 7.4; 200.0 µM
row,SMILES,solubility kinetic
1,COc1ccc(CCC(=O)N2CCN(c3cccc(C)c3C)CC2)cc1,17.3 µg/mL
2,Clc1ccc(-c2csc(-c3cccnc3)n2)s1,0.7 µg/mL
3,O=C(CN1CCc2cc3c(cc2C1)OCCCO3)Nc1ccccc1,4.4 µg/mL
4,COc1cc(C(=O)NCCCc2ccccc2)cc(OC)c1OC,> 49.4 µg/mL
5,CCOc1ncc(S(=O)(=O)N2CCN(CC)CC2)cc1C(=O)O,> 51.5 µg/mL
6,NC(=O)c1c(/N=C/c2cccs2)sc2c1CCCC2,18.4 µg/mL
7,O=C1COc2ccccc2N1Cc1c(F)cccc1Cl,20 µg/mL
8,O=S(=O)(NCc1ccccn1)c1ccc2ccccc2c1,36.9 µg/mL
9,O=C(Cc1cccc2ccccc12)Nc1ccc(N2CCOCC2)cc1,1.7 µg/mL
10,CN(Cc1c(F)cccc1Cl)C(=O)c1cnc2ccccc2n1,38.3 µg/mL
11,CCc1ccccc1NC(=O)N1C[C@H]2C[C@@H](C1)c1cccc(=O)n1C2,> 50.6 µg/mL
12,O=[N+]([O-])c1ccc(Cl)c(C[n+]2cccc3ccccc32)c1.[Br-],56.9 µg/mL
13,O=C1N(c2ccccc2)C(=Nc2ccccc2)SC12CC2,41.5 µg/mL
14,N#Cc1ccc(C(=O)NC(=S)N2CCOCC2)cc1,> 41.3 µg/mL
15,COc1ccc2oc(=N)c(C(=O)Nc3ccccc3Cl)cc2c1,0.8 µg/mL
16,O=C1CCC(=O)N1CCSC(=S)N1CCOCC1,> 43.3 µg/mL
17,Cc1cccc(NC(=O)c2ccc3c(c2)C(=O)N(c2ccccn2)C3=O)c1C,2.2 µg/mL
18,O=S(=O)(NCC1CCCO1)c1ccc(Cl)cc1 (stereo unspecified),25.5 µg/mL
19,CN(C)C(CNC(=O)c1ccc(NC(=O)CC#N)cc1)c1ccccc1 (stereo unspecified),> 52.6 µg/mL
20,Nc1nc(COc2ccc(F)cc2)nc(N2CCCCC2)n1,1.9 µg/mL
21,COc1ccccc1Nc1nc(Cl)nc(NC(C)(C)C)n1,6.5 µg/mL
22,Cc1c(Cl)cccc1NC(=O)CNC(=O)c1ccco1,38.2 µg/mL
23,O=S(=O)(Nc1ccncc1Cl)c1cccc(Cl)c1Cl,> 50.6 µg/mL
24,Cc1cc(C)c2c(NC(=O)CCl)nn(C)c2n1,> 37.9 µg/mL
25,COc1ccccc1CCC(=O)N(C)CC(=O)Nc1ccc(F)cc1,20.4 µg/mL

row,SMILES,solubility kinetic
1,COc1ccccc1NC(=O)c1ccc(NC(=O)COC(=O)c2cccnc2Cl)cc1,7.4 µg/mL
2,O=C(CN1C(=O)c2ccccc2C1=O)c1ccc(F)cc1,39.5 µg/mL
3,Cc1cc(C)cc(OCC(=O)O/N=C(\N)c2cccnc2)c1,38.3 µg/mL
4,CC(Sc1ncccn1)C(=O)NNC(=O)c1cccc(Cl)c1 (stereo unspecified),> 50.5 µg/mL
5,O=C(O)CC1(CC(=O)Nc2ccc(C(F)(F)F)cc2)CCCC1,> 49.4 µg/mL
6,Cc1cc(C)c2cc(C(=O)N(C)C3CCN(C)CC3)[nH]c2c1,21 µg/mL
7,COc1ccc2cc(C#N)c(N3CCOCC3)nc2c1,4.2 µg/mL
8,NC(CSCc1cccc(Br)c1)C(=O)O (stereo unspecified),> 43.5 µg/mL
9,CC1CCC(N(C)C2CCN(C)CC2)CC1 (stereo unspecified),22.4 µg/mL
10,CC(C)(C)c1ccc(OCC(=O)Nc2ccncc2)c(Br)c1,10.4 µg/mL
11,CC1CC(C)CN(C(=O)COC(=O)c2cc3ccccc3oc2=O)C1 (stereo unspecified),> 51.5 µg/mL
12,CN(C(=O)Cn1nc(C(=O)O)c2ccccc2c1=O)C1CCCCC1,> 51.5 µg/mL
13,O=[N+]([O-])c1cccc(Nc2c([N+](=O)[O-])ccc3nonc23)c1,< 0.1 µg/mL
14,COc1ccc2c(c1)CCCC21NC(=O)N(CC(=O)N2CC(C)OC(C)C2)C1=O (stereo unspecified),> 60.2 µg/mL
15,CN(CC(=O)Nc1ccc(Cl)cc1)C(=O)Cc1c(F)cccc1Cl,14.6 µg/mL
16,OC(CCN1CCC2(CC1)OCCO2)C(F)(F)F (stereo unspecified),> 40.4 µg/mL
17,C=C(C)c1cccc(C(C)(C)NC(=O)NCCN(CC)CC)c1,44 µg/mL
18,O=c1cc[nH]c2ccc([N+](=O)[O-])cc12,> 28.5 µg/mL
19,O=C(CCCc1ccccc1)NCCc1ccccc1,29.3 µg/mL
20,S=C(c1ccc(-c2ccc(Br)cc2)o1)N1CCOCC1,< 0.8 µg/mL
21,Cc1ccc(CC(=O)NCCCn2ccnc2)cc1,> 38.6 µg/mL
22,CCc1nc2sc(C(C)=O)c(N)c2c2c1CCCC2,1.1 µg/mL
23,O=C(CNS(=O)(=O)c1ccc(F)cc1)Nc1ccccc1,44.1 µg/mL
24,COc1ccc(OCC(=O)NCCCn2ccnc2)cc1.Cl,> 48.9 µg/mL
25,COc1ccc(C(=O)NCCc2c[nH]c3ccc(OC)cc23)cc1,> 48.7 µg/mL

row,SMILES,solubility kinetic
1,CC(C)C(C)NC(=O)COc1ncnc2sccc12 (stereo unspecified),> 41.9 µg/mL
2,Cc1ccccc1N1CCN(CCCN2C(=O)C3CCCCN3C2=O)CC1 (stereo unspecified),40.7 µg/mL
3,CCOC(=O)C1CCCN(C(=O)c2[nH]c3ccc(OC)cc3c2C)C1 (stereo unspecified),> 51.7 µg/mL
4,COc1cc(C(=O)Nc2ccc3c(c2)ncn3C)cc(OC)c1OC,> 51.2 µg/mL
5,c1ccc(-n2cnc3ccccc32)nc1,26.3 µg/mL
6,O=C1CN(S(=O)(=O)c2ccc(F)cc2)CCN1,> 38.7 µg/mL
7,Cc1cc2[nH]c3ccccc3c2cn1,> 27.3 µg/mL
8,CSc1nc(C)c(C(=O)C[n+]2ccccc2C)cc1C#N.[Br-],> 56.7 µg/mL
9,CS(=O)(=O)N1c2cccc3cccc(c23)S1(=O)=O,7.7 µg/mL
10,Cc1onc(-c2ccccc2)c1C(=O)N=C(N)c1ccc(Cl)cc1,1.1 µg/mL
11,CCN1CCN(C/C(C)=C/c2ccccc2)CC1,27.2 µg/mL
12,CCOC(=O)c1[nH]c2cc3c(cc2c1NC(=O)CN1CCCC1)OCO3,18 µg/mL
13,O=C(O)c1ccc(NC(=O)C2(c3ccccc3)CCCC2)cc1,> 46.4 µg/mL
14,CCc1cc2ccccc2nc1Cl,< 0.4 µg/mL
15,Cc1nc(-c2ccccn2)nc(N2CCOCC2)c1Cl,> 43.6 µg/mL
16,N#CCCN(Cc1cccnc1)C(=S)NC(=O)c1ccccc1,> 48.7 µg/mL
17,COc1ccc(C)cc1S(=O)(=O)NCCN1CCOCC1,> 47.2 µg/mL
18,CCOc1cc(C(=S)N2CCCC2)ccc1OCc1ccccc1,7.6 µg/mL
19,O=C(COC(=O)c1cccc(F)c1)NC1CC1,> 35.6 µg/mL
20,COc1cccc(CN2CCN(c3ncccn3)CC2)c1OC,35.7 µg/mL
21,O=C1CN(S(=O)(=O)c2cc(Br)ccc2Br)CCN1,> 59.7 µg/mL
22,COc1ccc(C)c(NC(=O)C2CC(=O)NC3=C2C(=O)CCC3)c1 (stereo unspecified),47.5 µg/mL
23,O=C(Nc1ccccc1C(=O)N1CCCCCC1)c1ccccc1,> 48.4 µg/mL
24,NS(=O)(=O)c1ccc(NC(=O)CN2CCc3ccccc32)cc1,23.6 µg/mL
25,O=C(CCNC(=O)c1ccccc1)OCC(=O)c1ccccc1,> 46.7 µg/mL

row,SMILES,solubility kinetic
1,O=C(c1cccc(S(=O)(=O)NCc2ccccc2)c1)N1CCCC1,> 51.7 µg/mL
2,CN(C)c1nc(Nc2ccc(Cl)c(Cl)c2)nc(N(C)C)n1,< 0.1 µg/mL
3,CCn1cc(C(=O)NCc2ccccc2)c2ccccc21,8 µg/mL
4,CCCCC(=O)OCc1nc2ccccc2s1,11.2 µg/mL
5,CCN(CC(=O)NC(=O)NC1CCCC1)Cc1ccccc1,> 45.5 µg/mL
6,O=C(Nc1ccc(N2CCOCC2)nc1)c1ccccc1Cl,42 µg/mL
7,O=C(CNC(=O)c1ccco1)Nc1ccc2c(c1)OCCO2,> 45.3 µg/mL
8,Cc1ccc(C(=O)NC2CC(C)(C)NC(C)(C)C2)cc1Cl,43.6 µg/mL
9,Cc1cc(C)c(NC(=O)C(=O)NCc2ccco2)c(C)c1,4.1 µg/mL
10,COC(=O)Nc1ccc(SCC(=O)c2ccccc2)cc1,3.4 µg/mL
11,Cc1cccc(NC(=O)COc2cccc3c2CCN(C)C3=O)c1,41.9 µg/mL
12,CC(C)c1cc(=O)n2c(nc3ccccc32)[nH]1,> 34.1 µg/mL
13,Cc1ccccc1S(=O)(=O)Nc1ncnc2ccccc12,> 44.9 µg/mL
14,CC(=O)N[C@@H](Cc1c[nH]c2ccccc12)C(=O)NC1CC1,> 42.8 µg/mL
15,O=C(NC1CCCC1)c1c(O)nc2sccn2c1=O,> 41.9 µg/mL
16,COC(=O)c1cc(C)nc(Sc2ccccc2NC(C)=O)n1,41.6 µg/mL
17,CC(=NCCCn1ccnc1)c1c(O)n(-c2ccccc2)c(=O)[nH]c1=O,> 53 µg/mL
18,Cn1c(=O)c2cc3ccccc3nc2n(C)c1=O,4.3 µg/mL
19,CCC(=O)Nc1ccc(C(=O)OCc2ccccc2)cc1,8.6 µg/mL
20,CN1CCN(CCC(=O)Nc2cccc(Br)c2)CC1,42.6 µg/mL
21,Cc1ncc([N+](=O)[O-])n1CCOc1nonc1N,> 38.1 µg/mL
22,CS(=O)(=O)c1ccc(NCCN2CCOCC2)c([N+](=O)[O-])c1,44.4 µg/mL
23,CC(=O)N1CCN(C(=O)COC(=O)c2ccc(S(C)(=O)=O)cc2)CC1,> 55.3 µg/mL
24,CC1CC2(CCCC2)N(C(=O)N(C)C)c2ccc(F)cc21 (stereo unspecified),10.5 µg/mL
25,Cc1cccc(NC(=O)Nc2ccccc2[N+](=O)[O-])n1,0.3 µg/mL

row,SMILES,solubility kinetic
1,Cc1cccc(C)c1OCC(=O)Nc1ccc(N2CCOCC2)cc1,6 µg/mL
2,Fc1ccc(NC(=S)Nc2nccs2)cc1,14.9 µg/mL
3,c1ccc(-c2ncc(CN3CCN(c4ccccn4)CC3)[nH]2)cc1,45.2 µg/mL
4,CCN1CCN(S(=O)(=O)c2ccc(Cl)c(C(=O)NCc3nc4ccccc4[nH]3)c2)CC1,18.8 µg/mL
5,COc1ccc(N2CCCC2=N)c(OC)c1.Cl,> 38.5 µg/mL
6,O=[N+]([O-])c1cccnc1Oc1ccccc1F,> 35.1 µg/mL
7,O=C(COC(=O)c1ccccc1Br)NCCC1=CCCCC1,22.5 µg/mL
8,COCCn1c(C)cc(C(=O)COC(=O)c2ccc([N+](=O)[O-])o2)c1C,> 52.5 µg/mL
9,O=C(Nc1ccon1)Nc1cc(Cl)ccc1Cl,1.4 µg/mL
10,O=C(NC(=S)N1CCCCCC1)c1ccccc1Cl,> 44.5 µg/mL
11,CCn1cnc2c1c(=O)n(CC(=O)O)c(=O)n2Cc1ccccc1,> 49.2 µg/mL
12,CCCc1cc(=O)[nH]c(SCC(=O)Nc2ccc(C(=O)Nc3ccccc3OC)cc2)n1,6.7 µg/mL
13,Cc1oc2ccccc2c1CC(=O)NCCCN(C)C,> 41.2 µg/mL
14,CCn1c(=O)c2sccc2n(Cc2ccc(C)cc2)c1=O,0.4 µg/mL
15,Cc1ccc2[nH]cc(CCNC(=O)C3CCCO3)c2c1 (stereo unspecified),> 40.9 µg/mL
16,O=C(Nc1ccccc1)Nc1cnccn1,16.2 µg/mL
17,Cc1ccc[n+](CC(=O)Nc2cccc(Cl)c2)c1.[Cl-],> 44.6 µg/mL
18,O=C(NC1CC1)C1CCN(C(=O)c2ccc(Cl)cc2Cl)CC1,> 51.2 µg/mL
19,COc1ccc(C(=O)C(C)OC(=O)c2sc(C)nc2C)cc1 (stereo unspecified),35.8 µg/mL
20,COc1ccc(OC)c(N(CC(=O)Nc2cccc3ccccc23)S(C)(=O)=O)c1,43 µg/mL
21,COc1ccccc1-n1c(-c2ccccc2Cl)nc2ccccc2c1=O,36.2 µg/mL
